{"source": "patent US20250380696A1", "about": "“METHOD FOR CONTROLLING UNDESIRED PLANTS AND PROMOTING GROWTH OF USEFUL PLANTS” (ISHIHARA SANGYO KAISHA, LTD., priority 2022, published 2025)", "assay_type_in_all_cases": "in vivo", "key": {"[1]": {"tested_on": "Italian ryegrass (Lolium multiflorum)", "test": "(5) Herbicidal effect test, pot, spray at 3.0 to 3.3 leaf stage", "conditions": "6th day after spraying", "description": "(§1) [formula] • X: growth inhibition rate when treated with α (g/ha) of compound A, • Y: growth inhibition rate when treated with β (g/ha) of compound B, • E: growth inhibition rate expected when treated with α (g/ha) of compound A and β (g/ha) of compound B (expected value).\nUpland soil was put in a 1/1,000,000 hectare pot, and seeds of Italian ryegrass (Lolium multiflorum) were sown. When the Italian ryegrass reached 3.0 to 3.3 leaf stage, a water-based suspension containing tiafenacil as the active ingredient, prepared by a conventional method for preparing a water-based suspension, and a wettable powder containing metribuzin as the active ingredient (tradename: SENCOR wettable powder, manufactured by Bayer Crop Science), water dispersible granules containing pyroxasulfone as the active ingredient (tradename: Sakura, manufactured by Bayer Crop Science) or a wettable powder containing tri-allate as the active ingredient, prepared by a conventional method for preparing a wettable powder, were diluted with water (in an amount corresponding to 200 liter per hectare) containing 0.5 vol % of an agricultural spreader (tradename: Destiny HC, manufactured by Winfield Solutions, LLC.) and sprayed by a small spray gun (model: W-101-132G, manufactured by ANEST IWATA Corporation). On the 6th day after spraying, the state of growth of the Italian ryegrass was visually observed, and the growth inhibition rate (%) was obtained in accordance with the evaluation standards described in the above (1) herbicidal effect test, and the results are shown in Table 5. Further, the expected value of the growth inhibition rate (%) was calculated in accordance with the Colby's formula described in the above (1) herbicidal effect test, and the results are also shown in Table 5."}, "[2]": {"tested_on": "horseweed (Conyza canadensis)", "test": "(14) Herbicidal effect test, pot, spray at diameter of 12 to 17 cm", "conditions": "6th day after spraying", "description": "as §1\nUpland soil was put in a 1/1,000,000 hectare pot, and seeds of horseweed (Conyza canadensis) were sown. When the horseweed reached a diameter of 12 to 17 cm, a water-based suspension containing tiafenacil as the active ingredient, prepared by a conventional method for preparing a water-based suspension, and an emulsifiable concentrate containing S-metolachlor as the active ingredient (tradename: Dual Gold, manufactured by Syngenta), a wettable powder containing metribuzin as the active ingredient (tradename: SENCOR wettable powder, manufactured by Bayer Crop Science) or water dispersible granules containing pyroxasulfone as the active ingredient (tradename: Sakura, manufactured by Bayer Crop Science) were diluted with water (in an amount corresponding to 200 liter per hectare) containing 0.5 vol % of an agricultural spreader (tradename: Destiny HC, manufactured by Winfield Solutions, LLC.) and sprayed by a small spray gun (model: W-101-132G, manufactured by ANEST IWATA Corporation). On the 6th day after spraying, the state of growth of the horseweed was visually observed, and the growth inhibition rate (%) was obtained in accordance with the evaluation standards described in the above (1) herbicidal effect test, and the results are shown in Table 14. Further, the expected value of the growth inhibition rate (%) was calculated in accordance with the Colby's formula described in the above (1) herbicidal effect test, and the results are also shown in Table 14."}, "[3]": {"tested_on": "horseweed (Conyza canadensis)", "test": "(15) Herbicidal effect test, pot, spray at diameter of 13 to 19 cm", "conditions": "3rd day after spraying", "description": "as §1\nUpland soil was put in a 1/1,000,000 hectare pot, and seeds of horseweed (Conyza canadensis) were sown. When the horseweed reached a diameter of 13 to 19 cm, a water-based suspension containing tiafenacil as the active ingredient, prepared by a conventional method for preparing a water-based suspension, and a wettable powder containing tri-allate as the active ingredient, prepared by a conventional method for preparing a wettable powder, an emulsifiable concentrate containing pethoxamid as the active ingredient (tradename: Successor 600, manufactured by Stähler Suisse SA) or an emulsifiable concentrate containing dimethenamid-P as the active ingredient (tradename: Fieldstar P emulsifiable concentrate, manufactured by BASF) were diluted with water (in an amount corresponding to 200 liter per hectare) containing 0.5 vol % of an agricultural spreader (tradename: Destiny HC, manufactured by Winfield Solutions, LLC.) and sprayed by a small spray gun (model: W-101-132G, manufactured by ANEST IWATA Corporation). On the 3rd day after spraying, the state of growth of the horseweed was visually observed, and the growth inhibition rate (%) was obtained in accordance with the evaluation standards described in the above (1) herbicidal effect test, and the results are shown in Table 15. Further, the expected value of the growth inhibition rate (%) was calculated in accordance with the Colby's formula described in the above (1) herbicidal effect test, and the results are also shown in Table 15."}, "[4]": {"tested_on": "forage corn (cultivar: SNOW DENT OTOHA)", "test": "(19) Plant growth promotion effect test (corn), Italian ryegrass sown", "conditions": "21st day after the sowing, above-ground part", "description": "Upland soil was put in a 1/1,000,000 hectare pot, and seeds of Italian ryegrass (Lolium multiflorum) were sown. When the Italian ryegrass reached 3.2 to 3.7 leaf stage, a water-based suspension containing tiafenacil as the active ingredient, prepared by a conventional method for preparing a water-based suspension, and a wettable powder containing tri-allate as the active ingredient, prepared by a conventional method for preparing a wettable powder or an emulsifiable concentrate containing pethoxamid as the active ingredient (tradename: Successor 600, manufactured by Stähler Suisse SA) were diluted with water (in an amount corresponding to 200 liter per hectare) containing 0.5 vol % of an agricultural spreader (tradename: Destiny HC, manufactured by Winfield Solutions, LLC.) and sprayed by a small spray gun (model: W-101-132G, manufactured by ANEST IWATA Corporation). Seeds of forage corn (cultivar: SNOW DENT OTOHA, manufactured by SNOW BRAND SEED Co., Ltd.) were sown in the pot after spraying. On the 21st day after the sowing, the above-ground part of the forage corn was reaped, and its weight was measured to obtain the raw weight."}}}
{"smiles": "COC(=O)CCNC(=O)C(C)Sc1cc(-n2c(=O)cc(C(F)(F)F)n(C)c2=O)c(F)cc1Cl", "note": "(stereo not drawn) [tiafenacil]", "values": [{"measurement": "Growth inhibition rate (%) Measured value", "setting": "[1]; Dose 3.13 g/ha", "result": 17, "unit": "%"}, {"measurement": "Growth inhibition rate (%) Measured value", "setting": "[1]; Dose 6.25 g/ha", "result": 33, "unit": "%"}, {"measurement": "Growth inhibition rate (%) Measured value", "setting": "[1]; Dose 12.5 g/ha", "result": 60, "unit": "%"}, {"measurement": "Growth inhibition rate (%) Measured value", "setting": "[2]; Dose 6.25 g/ha", "result": 23, "unit": "%"}, {"measurement": "Growth inhibition rate (%) Measured value", "setting": "[3]; Dose 6.25 g/ha", "result": 17, "unit": "%"}, {"measurement": "Raw weight (g) of forage corn", "setting": "[4]; Dose 6.25 g/ha", "result": 3.9, "unit": "g"}]}
{"smiles": "CCOCCN(C(=O)CCl)C(=C(C)C)c1ccccc1", "note": "[pethoxamid]", "values": [{"measurement": "Growth inhibition rate (%) Measured value", "setting": "[3]; Dose 93.8 g/ha", "result": 0, "unit": "%"}, {"measurement": "Growth inhibition rate (%) Measured value", "setting": "[3]; Dose 375 g/ha", "result": 0, "unit": "%"}, {"measurement": "Growth inhibition rate (%) Measured value", "setting": "[3]; Dose 750 g/ha", "result": 0, "unit": "%"}, {"measurement": "Raw weight (g) of forage corn", "setting": "[4]; Dose 93.8 g/ha", "result": 3.4, "unit": "g"}, {"measurement": "Raw weight (g) of forage corn", "setting": "[4]; Dose 375 g/ha", "result": 2.2, "unit": "g"}, {"measurement": "Raw weight (g) of forage corn", "setting": "[4]; Dose 750 g/ha", "result": 3.6, "unit": "g"}]}
{"smiles": "COC[C@H](C)N(C(=O)CCl)c1c(C)csc1C", "note": "[dimethenamid-P]", "values": [{"measurement": "Growth inhibition rate (%) Measured value", "setting": "[3]; Dose 60 g/ha", "result": 0, "unit": "%"}, {"measurement": "Growth inhibition rate (%) Measured value", "setting": "[3]; Dose 375 g/ha", "result": 0, "unit": "%"}, {"measurement": "Growth inhibition rate (%) Measured value", "setting": "[3]; Dose 750 g/ha", "result": 0, "unit": "%"}]}
{"smiles": "CSc1nnc(C(C)(C)C)c(=O)n1N", "note": "[metribuzin]", "values": [{"measurement": "inhibition at 137.5 g/ha", "setting": "[1]; Lolium multiflorum, Dose 137.5 g/ha, read-out: Growth inhibition rate (%) Measured value", "result": 20, "unit": "%"}, {"measurement": "inhibition at 275 g/ha", "setting": "[1]; Lolium multiflorum, Dose 275 g/ha, read-out: Growth inhibition rate (%) Measured value", "result": 30, "unit": "%"}, {"measurement": "inhibition at 550 g/ha", "setting": "[1]; Lolium multiflorum, Dose 550 g/ha, read-out: Growth inhibition rate (%) Measured value", "result": 30, "unit": "%"}, {"measurement": "inhibition at 9.38 g/ha", "setting": "[2]; Erigeron canadensis, Dose 9.38 g/ha, read-out: Growth inhibition rate (%) Measured value", "result": 0, "unit": "%"}, {"measurement": "inhibition at 550 g/ha", "setting": "[2]; Erigeron canadensis, Dose 550 g/ha, read-out: Growth inhibition rate (%) Measured value", "result": 5, "unit": "%"}, {"measurement": "inhibition at 1100 g/ha", "setting": "[2]; Erigeron canadensis, Dose 1100 g/ha, read-out: Growth inhibition rate (%) Measured value", "result": 5, "unit": "%"}]}
{"smiles": "CCc1cccc(C)c1N(C(=O)CCl)[C@@H](C)COC", "note": "[S-metolachlor]", "values": [{"measurement": "Growth inhibition rate (%) Measured value", "setting": "[2]; Dose 7.5 g/ha", "result": 0, "unit": "%"}, {"measurement": "Growth inhibition rate (%) Measured value", "setting": "[2]; Dose 375 g/ha", "result": 0, "unit": "%"}, {"measurement": "Growth inhibition rate (%) Measured value", "setting": "[2]; Dose 750 g/ha", "result": 0, "unit": "%"}]}
{"smiles": "Cn1nc(C(F)(F)F)c(CS(=O)(=O)C2=NOC(C)(C)C2)c1OC(F)F", "note": "[pyroxasulfone]", "values": [{"measurement": "inhibition at 7.5 g/ha", "setting": "[1]; Lolium multiflorum, Dose 7.5 g/ha, read-out: Growth inhibition rate (%) Measured value", "result": 0, "unit": "%"}, {"measurement": "inhibition at 15 g/ha", "setting": "[1]; Lolium multiflorum, Dose 15 g/ha, read-out: Growth inhibition rate (%) Measured value", "result": 3, "unit": "%"}, {"measurement": "inhibition at 62.5 g/ha", "setting": "[1]; Lolium multiflorum, Dose 62.5 g/ha, read-out: Growth inhibition rate (%) Measured value", "result": 8, "unit": "%"}, {"measurement": "inhibition at 125 g/ha", "setting": "[1]; Lolium multiflorum, Dose 125 g/ha, read-out: Growth inhibition rate (%) Measured value", "result": 17, "unit": "%"}, {"measurement": "inhibition at 250 g/ha", "setting": "[1]; Lolium multiflorum, Dose 250 g/ha, read-out: Growth inhibition rate (%) Measured value", "result": 23, "unit": "%"}, {"measurement": "inhibition at 7.5 g/ha", "setting": "[2]; Erigeron canadensis, Dose 7.5 g/ha, read-out: Growth inhibition rate (%) Measured value", "result": 0, "unit": "%"}, {"measurement": "inhibition at 250 g/ha", "setting": "[2]; Erigeron canadensis, Dose 250 g/ha, read-out: Growth inhibition rate (%) Measured value", "result": 0, "unit": "%"}, {"measurement": "inhibition at 500 g/ha", "setting": "[2]; Erigeron canadensis, Dose 500 g/ha, read-out: Growth inhibition rate (%) Measured value", "result": 0, "unit": "%"}]}
{"smiles": "CC(C)N(C(=O)SCC(Cl)=C(Cl)Cl)C(C)C", "note": "[tri-allate]", "values": [{"measurement": "inhibition at 75 g/ha", "setting": "[1]; Lolium multiflorum, Dose 75 g/ha, read-out: Growth inhibition rate (%) Measured value", "result": 0, "unit": "%"}, {"measurement": "inhibition at 150 g/ha", "setting": "[1]; Lolium multiflorum, Dose 150 g/ha, read-out: Growth inhibition rate (%) Measured value", "result": 0, "unit": "%"}, {"measurement": "inhibition at 625 g/ha", "setting": "[1]; Lolium multiflorum, Dose 625 g/ha, read-out: Growth inhibition rate (%) Measured value", "result": 2, "unit": "%"}, {"measurement": "inhibition at 1250 g/ha", "setting": "[1]; Lolium multiflorum, Dose 1250 g/ha, read-out: Growth inhibition rate (%) Measured value", "result": 5, "unit": "%"}, {"measurement": "inhibition at 75 g/ha", "setting": "[3]; Erigeron canadensis, Dose 75 g/ha, read-out: Growth inhibition rate (%) Measured value", "result": 0, "unit": "%"}, {"measurement": "inhibition at 625 g/ha", "setting": "[3]; Erigeron canadensis, Dose 625 g/ha, read-out: Growth inhibition rate (%) Measured value", "result": 5, "unit": "%"}, {"measurement": "inhibition at 1250 g/ha", "setting": "[3]; Erigeron canadensis, Dose 1250 g/ha, read-out: Growth inhibition rate (%) Measured value", "result": 3, "unit": "%"}, {"measurement": "Raw weight (g) of forage corn", "setting": "[4]; Dose 75 g/ha", "result": 2.6, "unit": "g"}, {"measurement": "Raw weight (g) of forage corn", "setting": "[4]; Dose 625 g/ha", "result": 2.2, "unit": "g"}, {"measurement": "Raw weight (g) of forage corn", "setting": "[4]; Dose 1250 g/ha", "result": 2.5, "unit": "g"}]}
